According to PMC6838683, “Discovery of Human Signaling Systems: Pairing Peptides to G Protein-Coupled Receptors” (Cell, 2019):
Read-outs that look alike come from different tables or passages of the source. Residues, ends and D or L forms follow the SMILES beside them.

What was measured:
Assay type in all cases: cell-based
BB3 [1] = molecular target: T1, BB3 (Homo sapiens, UniProt P32247); test: IP1 accumulation (Gq/11), HTRF; conditions: mean, SEM and n (2-4)
T1 construct: hIL-2Ra signal peptide (N); expressed in transfected cells
T1 sequence (P32247 2-399 limits assumed): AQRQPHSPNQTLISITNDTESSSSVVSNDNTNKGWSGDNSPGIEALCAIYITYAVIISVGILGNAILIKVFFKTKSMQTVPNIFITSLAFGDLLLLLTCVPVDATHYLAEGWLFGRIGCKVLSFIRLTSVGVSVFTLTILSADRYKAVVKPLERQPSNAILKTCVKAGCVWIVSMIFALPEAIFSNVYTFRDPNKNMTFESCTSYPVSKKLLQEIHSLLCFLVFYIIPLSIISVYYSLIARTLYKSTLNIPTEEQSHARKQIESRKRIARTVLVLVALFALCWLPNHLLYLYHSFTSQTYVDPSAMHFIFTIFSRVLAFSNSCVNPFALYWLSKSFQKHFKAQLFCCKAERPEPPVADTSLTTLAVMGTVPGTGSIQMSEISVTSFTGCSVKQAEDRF

BB3 [2] = molecular target: T1, BB3; test: Dynamic mass redistribution (DMR), concentration-response; conditions: mean, SEM and n (3)
BB3 [3] = molecular target: T1, BB3; test: Real-time receptor internalization (TR-FRET), concentration-response
GPR55 = GPR55 (Homo sapiens, UniProt Q9Y2T6); test: as above; set-up: hIL-2Ra signal peptide (N); expressed in transfected cells
Description: 48 hr prior to parallel assaying, SNAP-tagged oGPCR cells were plated (10,000 cells/well) in fibronectin-coated 384-well Epic biosensor microplates (Corning) and poly-D-lysine coated white 384-well plates (for internalization assays). SNAP- GLP-1 receptor was plated alongside orphan receptor cells as an internal assay control for internalization assays. Receptor-expression was induced with 0.1 μg/ml doxycycline.
A TR-FRET real-time internalization assay was used to examine peptide-dependent changes in orphan receptor localization as described previously ([Foster and Bräuner-Osborne, 2018]). Surface-expressed SNAP-tagged receptors were labeled with a cell-impermeable luminescent terbium cryptate (100 nM SNAP Lumi4-Tb; Cisbio, France) for 1 hr at 37°C. Cells were washed to remove excess terbium and incubated with fluorescein-O-acetic acid (100 μM; Sigma Aldrich) for 5 min at 37°C. Peptides were added as for DMR assays, and internalization responses were recorded for 60 min at 37°C using an EnVision 2104 Multimode plate reader (PerkinElmer). 100 nM GLP-1 was used as a positive control for SNAP-GLP1R internalization. Real-time internalization responses were calculated based on TR-FRET (excitation 340 nm; emission 520 nm and 615 nm), and were expressed as the ratio between donor (terbium) and acceptor (fluorescein) emission. For peptide screening analysis (both DMR and internalization assays), we calculated the area under the curve from the real-time traces. […] Validation experiments for receptor internalization were performed as above. Internalization data was processed in MS-Excel and area under the curve was used to generate concentration-response curves using GraphPad Prism 7.0. Data represent mean ± standard error of the mean (SEM) from at least 3 biologically independent experiments.

[4] = IP1 accumulation assays pEC50, receptor BB3
[5] = receptor BB3, mean, SEM and n (3), read-out: Internalization assays pEC50 (converted)
[6] = receptor BB3, read-out: IP1 accumulation assays pEC50 (converted)
[7] = receptor BB3, read-out: DMR assays pEC50 (converted)
[8] = receptor GPR55, mean, SEM and n (3-4), read-out: Internalization assays pEC50 (converted)

Sequence of GPR55 (Q9Y2T6 2-319 limits assumed): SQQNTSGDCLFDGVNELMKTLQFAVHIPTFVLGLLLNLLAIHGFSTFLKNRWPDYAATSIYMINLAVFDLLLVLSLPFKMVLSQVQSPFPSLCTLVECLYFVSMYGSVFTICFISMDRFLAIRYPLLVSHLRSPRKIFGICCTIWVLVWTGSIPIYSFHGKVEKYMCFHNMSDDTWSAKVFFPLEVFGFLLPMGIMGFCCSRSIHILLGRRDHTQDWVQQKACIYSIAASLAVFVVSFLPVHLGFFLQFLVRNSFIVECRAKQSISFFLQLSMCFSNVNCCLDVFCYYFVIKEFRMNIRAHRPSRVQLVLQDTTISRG

What does the source list for `CSCC[C@H](NC(=O)[C@H](Cc1ccccc1)NC(=O)[C@H](Cc1cnc[nH]1)NC(=O)CNC(=O)[C@@H](NC(=O)[C@H](C)NC(=O)[C@H](Cc1c[nH]c2ccccc12)NC(=O)[C@H](CC(C)C)NC(=O)[C@H](CC(N)=O)NC(=O)CN)[C@@H](C)O)C(N)=O` [59 resynthesized]?
EC50 (BB3 [1]; [4]): 525 nM; EC50 (BB3 [2]; DMR assays pEC50, receptor BB3): 27.5 nM; EC50 (BB3 [3]; [5]): 1550 nM

How did the EC50 (BB3 [1]; [6]) turn out when `CC[C@H](C)[C@H](NC(=O)[C@H](CCCCN)NC(=O)[C@H](CO)NC(=O)[C@H](C)NC(=O)[C@H](CCCNC(=N)N)NC(=O)[C@H](CO)NC(=O)[C@H](CCCNC(=N)N)NC(=O)[C@@H]1CCCN1C(=O)[C@H](CCC(=O)O)NC(=O)[C@@H]1CCCN1C(=O)[C@H](CC(C)C)NC(=O)[C@H](CC(=O)O)NC(=O)[C@H](Cc1c[nH]c2ccccc12)NC(=O)[C@H](CO)NC(=O)[C@H](CC(C)C)NC(=O)[C@@H]1CCCN1C(=O)[C@H](C)N)C(=O)N[C@@H](CCCNC(=N)N)C(=O)N[C@H](C(=O)N[C@@H](Cc1c[nH]cn1)C(=O)N[C@@H](CO)C(=O)N[C@@H](CCCNC(=N)N)C(=O)NCC(=O)N[C@@H](CC(N)=O)C(=O)N[C@@H](CC(C)C)C(=O)N[C@@H](Cc1c[nH]c2ccccc12)C(=O)N[C@@H](C)C(=O)N[C@H](C(=O)NCC(=O)N[C@@H](Cc1c[nH]cn1)C(=O)N[C@@H](Cc1ccccc1)C(=O)N[C@@H](CCSC)C(N)=O)[C@@H](C)O)C(C)C` [59.1 (Phoenix)] (H-APLSWDLPEPRSRASKIRVHSRGNLWATGHFM-NH2) was run?
The EC50 was 224 nM.

What about the EC50 (BB3 [2]; [7]) of the same compound?
Its EC50 is 49 nM.

What about the EC50 (BB3 [3]; [5]) of the same compound?
The EC50 was 646 nM.

`CSCC[C@H](NC(=O)[C@H](Cc1ccccc1)NC(=O)CNC(=O)CNC(=O)[C@@H](N)Cc1ccc(O)cc1)C(=O)O` [158.1 (Phoenix)] was tested. Which EC50 (BB3 [1]; [4]) did it give?
The EC50 was 12.6 nM.

What about the EC50 (BB3 [2]; DMR assays pEC50, receptor BB3) of the same compound?
Its EC50 is 64.6 nM.

`CC(C)C[C@H](NC(=O)[C@H](CCCCN)NC(=O)[C@H](CCC(N)=O)NC(=O)[C@@H](NC(=O)[C@H](CCCCN)NC(=O)[C@H](CO)NC(=O)[C@H](Cc1ccc(O)cc1)NC(=O)[C@H](Cc1c[nH]cn1)NC(=O)[C@H](Cc1ccccc1)NC(=O)[C@H](CC(C)C)NC(=O)[C@@H](N)Cc1ccccc1)[C@@H](C)O)C(=O)NCC(=O)N[C@@H](CCCCN)C(=O)N[C@@H](CO)C(=O)N[C@@H](CC(N)=O)C(=O)N[C@H](C(=O)N[C@H](C(=O)N[C@@H](CO)C(=O)N[C@@H](CO)C(=O)N[C@H](C(=O)N[C@H](C(=O)N[C@@H](Cc1c[nH]cn1)C(=O)N1CCC[C@H]1C(=O)N[C@@H](CC(C)C)C(=O)N[C@@H](CC(C)C)C(=O)N[C@@H](CCC(N)=O)C(=O)N[C@@H](CC(C)C)C(=O)N[C@H](C(=O)N1CCC[C@H]1C(=O)N[C@@H](Cc1c[nH]cn1)C(=O)N[C@@H](CC(C)C)C(=O)N[C@@H](Cc1c[nH]cn1)C(=O)N[C@@H](CCC(=O)O)C(=O)O)C(C)C)C(C)C)C(C)C)C(C)C)C(C)C` [Peptide 67.1] (H-FLFHYSKTQKLGKSNVVSSVVHPLLQLVPHLHE-OH) was tested. Which EC50 (BB3 [1]; [6]) did it give?
The EC50 was 4270 nM.

What about the EC50 (BB3 [2]; [7]) of the same compound?
Its EC50 is 32400 nM.

What does the source list for `CSCC[C@H](NC(=O)[C@H](CCCNC(=N)N)NC(=O)[C@H](CCCNC(=N)N)NC(=O)[C@H](CCC(=O)O)NC(=O)[C@H](Cc1c[nH]cn1)NC(=O)[C@H](CC(C)C)NC(=O)[C@H](Cc1c[nH]cn1)NC(=O)[C@@H]1CCCN1C(=O)[C@@H](NC(=O)[C@H](CC(C)C)NC(=O)[C@H](CCC(N)=O)NC(=O)[C@H](CC(C)C)NC(=O)[C@H](CC(C)C)NC(=O)[C@@H]1CCCN1C(=O)[C@H](Cc1c[nH]cn1)NC(=O)[C@@H](NC(=O)[C@@H](NC(=O)[C@H](CO)NC(=O)[C@H](CO)NC(=O)[C@@H](NC(=O)[C@@H](NC(=O)[C@H](CC(N)=O)NC(=O)[C@H](CO)NC(=O)[C@H](CCCCN)NC(=O)CNC(=O)[C@H](CC(C)C)NC(=O)[C@H](CCCCN)NC(=O)[C@H](CCC(N)=O)NC(=O)[C@@H](NC(=O)[C@H](CCCCN)NC(=O)[C@H](CO)NC(=O)[C@H](Cc1ccc(O)cc1)NC(=O)[C@H](Cc1c[nH]cn1)NC(=O)[C@H](Cc1ccccc1)NC(=O)[C@H](CC(C)C)NC(=O)[C@@H](N)Cc1ccccc1)[C@@H](C)O)C(C)C)C(C)C)C(C)C)C(C)C)C(C)C)C(=O)O` [Peptide 67.2] (H-FLFHYSKTQKLGKSNVVSSVVHPLLQLVPHLHERRM-OH)?
EC50 (BB3 [1]; [6]): 1170 nM; EC50 (BB3 [2]; [7]): 38000 nM

With `CC(C)C[C@H](NC(=O)[C@H](CCCCN)NC(=O)[C@H](CCC(N)=O)NC(=O)[C@@H](NC(=O)[C@H](CCCCN)NC(=O)[C@H](CO)NC(=O)[C@H](Cc1ccc(O)cc1)NC(=O)[C@H](Cc1c[nH]cn1)NC(=O)[C@H](Cc1ccccc1)NC(=O)[C@H](CC(C)C)NC(=O)[C@@H](N)Cc1ccccc1)[C@@H](C)O)C(N)=O` [Peptide 67] (H-FLFHYSKTQKL-NH2; N-terminus assumed) as the compound, how does the EC50 (BB3 [3]; SNAP-tagged BB3 in Flp-In T-REx 293 cells, TR-FRET 60 min, 37°C, AUC, mean ± SEM of 3-4 independent experiments in triplicate, read-out: pEC50, internalization, BB3 (converted)) read?
The EC50 was over 10000 nM.

Which EC50 (GPR55; read-out: pEC50, internalization, GPR55 (converted)) does the source give for `CC[C@H](C)[C@H](NC(=O)[C@H](CC(=O)O)NC(=O)[C@@H](NC(=O)[C@H](Cc1ccc(O)cc1)NC(=O)[C@@H](NC(=O)CNC(=O)[C@H](CC(N)=O)NC(=O)[C@@H](NC(=O)[C@H](CC(C)C)NC(=O)[C@H](Cc1ccc(O)cc1)NC(=O)[C@H](CC(=O)O)NC(=O)[C@H](CC(C)C)NC(=O)[C@H](CCCNC(=N)N)NC(=O)[C@H](CO)NC(=O)[C@H](Cc1ccc(O)cc1)NC(=O)[C@H](CCCNC(=N)N)NC(=O)[C@@H](N)CCCCN)[C@@H](C)CC)[C@@H](C)CC)C(C)C)C(=O)O` [Peptide 114] (H-KRYSRLDYLINGIYVDI-OH; N-terminus assumed) here?
The EC50 was over 10000 nM.

What does the source list for `CSCC[C@H](NC(=O)[C@H](Cc1ccccc1)NC(=O)CNC(=O)CNC(=O)[C@@H](N)Cc1ccc(O)cc1)C(=O)N[C@@H](CCCNC(=N)N)C(=O)N[C@@H](CCCNC(=N)N)C(=O)N[C@H](C(N)=O)C(C)C` [Peptide 158.3]?
EC50 (BB3 [1]; [4]): 89.1 nM; EC50 (BB3 [2]; DMR assays pEC50, receptor BB3): 15500 nM

`CSCC[C@H](NC(=O)[C@H](Cc1ccccc1)NC(=O)CNC(=O)CNC(=O)[C@@H](N)Cc1ccc(O)cc1)C(=O)N[C@@H](CCCNC(=N)N)C(=O)N[C@@H](CCCNC(=N)N)C(=O)N[C@H](C(=O)NCC(=O)N[C@@H](CCCNC(=N)N)C(=O)N1CCC[C@H]1C(=O)N[C@@H](CCC(=O)O)C(=O)N[C@@H](Cc1c[nH]c2ccccc12)C(=O)N[C@@H](Cc1c[nH]c2ccccc12)C(=O)N[C@@H](CCSC)C(=O)N[C@@H](CC(=O)O)C(=O)N[C@@H](Cc1ccc(O)cc1)C(=O)N[C@@H](CCC(N)=O)C(=O)O)C(C)C` [Peptide 158.5] (H-YGGFMRRVGRPEWWMDYQ-OH) was tested. Which EC50 (BB3 [1]; [4]) did it give?
Its EC50 is 100 nM.

What about the EC50 (BB3 [2]; DMR assays pEC50, receptor BB3) of the same compound?
Its EC50 is 69200 nM.

How did the EC50 (GPR55; [8]) turn out when `CC(C)C[C@H](NC(=O)[C@@H](NC(=O)[C@H](C)NC(=O)[C@H](C)NC(=O)[C@H](CC(C)C)NC(=O)[C@@H](N)Cc1ccc(O)cc1)C(C)C)C(N)=O` [Peptide 168.2] (H-YLAAVL-NH2) was run?
Its EC50 is 20400 nM.

How did the EC50 (GPR55; [8]) turn out when `CSCC[C@H](NC(=O)[C@@H](N)CCC(N)=O)C(=O)N[C@@H](C)C(=O)N[C@H](C(=O)N[C@@H](CCCCN)C(=O)N[C@@H](CCCCN)C(=O)N[C@@H](Cc1ccc(O)cc1)C(=O)N[C@@H](CC(C)C)C(=O)N[C@@H](C)C(=O)N[C@@H](C)C(=O)N[C@H](C(=O)N[C@@H](CC(C)C)C(N)=O)C(C)C)C(C)C` [Peptide 168.3] was run?
The EC50 was 0.219 nM.

With `CC[C@H](C)[C@H](NC(=O)CNC(=O)[C@H](CC(=O)O)NC(=O)[C@H](CO)NC(=O)[C@@H](N)Cc1c[nH]cn1)C(=O)N[C@@H](Cc1ccccc1)C(=O)N[C@H](C(=O)N[C@@H](CC(=O)O)C(=O)N[C@@H](CO)C(=O)N[C@@H](Cc1ccc(O)cc1)C(=O)N[C@@H](CO)C(=O)N[C@@H](CCCNC(=N)N)C(=O)N[C@@H](Cc1ccc(O)cc1)C(=O)O)[C@@H](C)O` [Peptide 168.4] (H-HSDGIFTDSYSRY-OH) as the compound, how does the EC50 (GPR55; [8]) read?
The EC50 was 316 nM.

“YGGFMRRVGRPEWWMDYQKRYGGFL [158 original]” was tested. Which “IP1 accumulation assays Emax” value (BB3 [1]; receptor BB3) did it give?
The value was 164.0 nM.

What about the “Internalization assays Emax (AUC)” value (BB3 [3]; receptor BB3, mean, SEM and n (3)) of the same compound?
The value was 16.0.
